Source: the NIST ThermoML archive (doi:10.1021/acs.jced.6b00577)

Conditions: Liquid, Frequency=8 MHz, Pulse-echo method

CCCC [butane]
Conditions | speed of sound [m/s]
320 K, 1101.2 kPa | 790.66
320 K, 2101.9 kPa | 805.08
320 K, 2104.1 kPa | 805.16
320 K, 3102.5 kPa | 818.93
320 K, 3104.8 kPa | 819.01
320 K, 4103.2 kPa | 832.27
320 K, 4105.5 kPa | 832.35
320 K, 5103.8 kPa | 845.16
320 K, 5106.1 kPa | 845.24
320 K, 6106.8 kPa | 857.71
320 K, 7107.5 kPa | 869.8
320 K, 8108.2 kPa | 881.54
320 K, 9108.9 kPa | 892.95
320 K, 10109 kPa | 904.04
320 K, 10110 kPa | 904.07
320 K, 12611 kPa | 930.65
320 K, 15113 kPa | 955.74
320 K, 17615 kPa | 979.54
320 K, 20116 kPa | 1002.2
320 K, 25120 kPa | 1044.7
320 K, 30123 kPa | 1084
320 K, 35127 kPa | 1120.6
320 K, 40130 kPa | 1155
320 K, 45134 kPa | 1187.5
320 K, 50137 kPa | 1218.4
320 K, 50138 kPa | 1218.4
320 K, 60144 kPa | 1276.1
320 K, 70152 kPa | 1329.2
320 K, 80158 kPa | 1378.5
320 K, 90166 kPa | 1424.7
320 K, 100173 kPa | 1468.2
340 K, 1100.4 kPa | 678.12
340 K, 2101.1 kPa | 696.22
340 K, 2103.7 kPa | 696.27
340 K, 3101.7 kPa | 713.3
340 K, 3104.3 kPa | 713.36
340 K, 4102.4 kPa | 729.53
340 K, 4105 kPa | 729.59
340 K, 5102.9 kPa | 745.01
340 K, 5105.6 kPa | 745.07
340 K, 6106.2 kPa | 759.88
340 K, 7106.8 kPa | 774.1
340 K, 8107.5 kPa | 787.79
340 K, 9108.1 kPa | 801.01
340 K, 10106 kPa | 813.73
340 K, 10108 kPa | 813.77
340 K, 12610 kPa | 844.03
340 K, 15112 kPa | 872.22
340 K, 17614 kPa | 898.7
340 K, 20116 kPa | 923.7
340 K, 25119 kPa | 970.09
340 K, 30123 kPa | 1012.5
340 K, 35126 kPa | 1051.8
340 K, 40130 kPa | 1088.5
340 K, 45133 kPa | 1122.9
340 K, 50136 kPa | 1155.5
340 K, 60145 kPa | 1216
340 K, 70152 kPa | 1271.4
340 K, 80159 kPa | 1322.7
340 K, 90166 kPa | 1370.5
340 K, 100173 kPa | 1415.5
360 K, 2100.8 kPa | 582.29
360 K, 2103.9 kPa | 582.37
360 K, 3101.4 kPa | 604.48
360 K, 3104.6 kPa | 604.56
360 K, 4102 kPa | 625
360 K, 4102.1 kPa | 625
360 K, 4105.4 kPa | 625.09
360 K, 5102.6 kPa | 644.17
360 K, 5103 kPa | 644.18
360 K, 5106.1 kPa | 644.25
360 K, 6106.9 kPa | 662.28
360 K, 7107.6 kPa | 679.33
360 K, 8108.4 kPa | 695.54
360 K, 9109.1 kPa | 711.01
360 K, 10110 kPa | 725.83
360 K, 12612 kPa | 760.45
360 K, 15113 kPa | 792.21
360 K, 17615 kPa | 821.66
360 K, 20117 kPa | 849.23
360 K, 25120 kPa | 899.75
360 K, 30124 kPa | 945.47
360 K, 35128 kPa | 987.41
360 K, 40131 kPa | 1026.3
360 K, 45135 kPa | 1062.7
360 K, 50138 kPa | 1096.9
360 K, 60145 kPa | 1160.2
360 K, 70152 kPa | 1217.7
360 K, 80159 kPa | 1270.8
360 K, 90166 kPa | 1320.2
360 K, 100173 kPa | 1366.5
380 K, 2103.2 kPa | 456.13
380 K, 3104.2 kPa | 488.08
380 K, 4105 kPa | 515.93
380 K, 5105.8 kPa | 540.88
380 K, 6106.7 kPa | 563.62
380 K, 7107.5 kPa | 584.62
380 K, 8108.3 kPa | 604.2
380 K, 9109.1 kPa | 622.6
380 K, 10110 kPa | 639.98
380 K, 12611 kPa | 679.85
380 K, 15113 kPa | 715.71
380 K, 17614 kPa | 748.49
380 K, 20116 kPa | 778.8
380 K, 25120 kPa | 833.69
380 K, 30123 kPa | 882.73
380 K, 35127 kPa | 927.32
380 K, 40132 kPa | 968.4
380 K, 45135 kPa | 1006.6
380 K, 50139 kPa | 1042.4
380 K, 60146 kPa | 1108.3
380 K, 70153 kPa | 1167.9
380 K, 80160 kPa | 1222.7
380 K, 90167 kPa | 1273.5
380 K, 100174 kPa | 1321.1
400 K, 2704.8 kPa | 329.55
400 K, 3105.1 kPa | 351.68
400 K, 4105.8 kPa | 396.18
400 K, 5106.4 kPa | 431.84
400 K, 6107 kPa | 462.27
400 K, 7107.7 kPa | 489.16
400 K, 8108.4 kPa | 513.44
400 K, 9109.4 kPa | 535.71
400 K, 10110 kPa | 556.36
400 K, 12612 kPa | 602.56
400 K, 15114 kPa | 643.08
400 K, 17616 kPa | 679.47
400 K, 20118 kPa | 712.7
400 K, 25121 kPa | 772.06
400 K, 30125 kPa | 824.41
400 K, 35128 kPa | 871.59
400 K, 40132 kPa | 914.76
400 K, 45135 kPa | 954.73
400 K, 50138 kPa | 992.04
400 K, 60145 kPa | 1060.3
400 K, 70152 kPa | 1121.8
400 K, 80159 kPa | 1178.1
400 K, 90166 kPa | 1230.3
400 K, 100173 kPa | 1278.9
420 K, 4104.4 kPa | 244.51
420 K, 4455.2 kPa | 271.52
420 K, 4605 kPa | 281.85
420 K, 4955.6 kPa | 302.47
420 K, 5105.1 kPa | 310.48
420 K, 5456.1 kPa | 327.76
420 K, 5605.7 kPa | 334.63
420 K, 6105.8 kPa | 355.8
420 K, 6606.5 kPa | 374.83
420 K, 7106.5 kPa | 392.2
420 K, 8107.2 kPa | 423.27
420 K, 9108 kPa | 450.7
420 K, 10109 kPa | 475.45
420 K, 12611 kPa | 529.12
420 K, 15112 kPa | 574.77
420 K, 17615 kPa | 614.98
420 K, 20117 kPa | 651.2
420 K, 25120 kPa | 714.99
420 K, 30124 kPa | 770.53
420 K, 35127 kPa | 820.17
420 K, 40131 kPa | 865.3
420 K, 45134 kPa | 906.89
420 K, 50138 kPa | 945.57
420 K, 55142 kPa | 981.83
420 K, 60145 kPa | 1016
420 K, 70152 kPa | 1079.3
420 K, 80159 kPa | 1137
420 K, 90166 kPa | 1190.3
420 K, 100173 kPa | 1240
430 K, 5105.6 kPa | 236.47
430 K, 5355.3 kPa | 258.17
430 K, 5606 kPa | 273.03
430 K, 5855.6 kPa | 287.25
430 K, 6106.3 kPa | 300.07
430 K, 6356.3 kPa | 311.9
430 K, 6606.6 kPa | 323.01
430 K, 7106.8 kPa | 343.37
430 K, 7106.9 kPa | 343.37
430 K, 7607.2 kPa | 361.85
430 K, 8107.5 kPa | 378.83
430 K, 8607.8 kPa | 394.6
430 K, 9108.1 kPa | 409.36
430 K, 9608.5 kPa | 423.28
430 K, 10109 kPa | 436.47
430 K, 11110 kPa | 461
430 K, 12110 kPa | 483.55
430 K, 13111 kPa | 504.47
430 K, 14112 kPa | 524.06
430 K, 15113 kPa | 542.49
430 K, 17614 kPa | 584.59
430 K, 20116 kPa | 622.27
